Laboratory results published in EP1586565A1, “Substituted polycyclic aryl and heteroaryl pyrazinones useful for selective inhibition of the coagulation cascade” (Pharmacia Corporation, priority 1999, dated 2000).

Key:
TF-VIIa = target: T1, TF-VIIa (Homo sapiens, UniProt P08709); experiment: TF-VIIa Assay; assay type: biochemical; conditions: for IC50 or % Inhibition TF-VIIa (30 µM): % inhibition at 30 µM (cells with % or %@30, bare 0)
T1 construct: An extrinsic pathway is initiated by the conversion of coagulation factor VII to VIIa by Xa; purchased American Diagnostica, Greenwich CT; Soluble TF was made in house in E. coli

Human factor Xa = target: T2, Human factor Xa (Homo sapiens, UniProt P00742); experiment: Xa Assay; assay type: biochemical; conditions: for IC50 or % Inhibition Factor Xa (30 µM): % inhibition at 30 µM (cells with % or %@30, bare 0)
T2 construct: leads from XII to XIIa to XIa to IXa and to the conversion of X to Xa; purchased Enzyme Research Laboratories, South Bend IN
T2 sequence (P00742 235-488 limits assumed): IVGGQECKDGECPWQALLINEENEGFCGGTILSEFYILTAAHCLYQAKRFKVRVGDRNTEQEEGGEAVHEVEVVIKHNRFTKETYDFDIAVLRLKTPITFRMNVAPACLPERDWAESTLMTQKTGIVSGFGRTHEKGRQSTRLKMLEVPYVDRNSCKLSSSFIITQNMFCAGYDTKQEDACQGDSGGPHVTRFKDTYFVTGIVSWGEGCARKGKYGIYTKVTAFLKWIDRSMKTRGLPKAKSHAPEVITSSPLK
T2 sequence (P00742 41-179 limits assumed): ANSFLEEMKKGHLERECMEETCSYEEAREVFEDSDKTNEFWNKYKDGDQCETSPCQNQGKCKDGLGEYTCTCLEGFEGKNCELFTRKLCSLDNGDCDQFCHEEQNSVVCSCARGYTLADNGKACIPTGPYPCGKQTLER

T1 sequence (P08709 213-466 limits assumed): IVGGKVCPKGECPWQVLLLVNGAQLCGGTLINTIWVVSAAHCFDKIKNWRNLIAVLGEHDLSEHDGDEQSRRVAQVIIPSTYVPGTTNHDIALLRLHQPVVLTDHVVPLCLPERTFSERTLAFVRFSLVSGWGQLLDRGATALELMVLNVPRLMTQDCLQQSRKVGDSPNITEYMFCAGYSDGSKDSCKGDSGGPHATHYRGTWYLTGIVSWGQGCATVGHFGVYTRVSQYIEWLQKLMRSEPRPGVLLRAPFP
T1 sequence (P08709 61-212 limits assumed): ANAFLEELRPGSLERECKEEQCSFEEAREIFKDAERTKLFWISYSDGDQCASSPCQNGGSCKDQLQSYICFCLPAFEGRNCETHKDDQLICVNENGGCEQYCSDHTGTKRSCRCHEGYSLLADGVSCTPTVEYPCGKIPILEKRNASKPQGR
T1 sequence (P13726 33-251 partner limits assumed): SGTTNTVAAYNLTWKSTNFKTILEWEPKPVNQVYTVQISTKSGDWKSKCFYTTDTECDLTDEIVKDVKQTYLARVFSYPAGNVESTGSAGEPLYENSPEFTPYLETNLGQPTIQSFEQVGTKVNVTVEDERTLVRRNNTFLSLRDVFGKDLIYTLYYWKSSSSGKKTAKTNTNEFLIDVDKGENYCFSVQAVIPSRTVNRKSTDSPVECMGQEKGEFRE

| Structure (SMILES) | IC50 or % Inhibition Factor Xa (30 µM) (Human factor Xa) [%] | other results |
| --- | --- | --- |
| N=C(N)c1ccc(CNC(=O)Cn2c(-c3ccc(Cl)cc3)c(Cl)nc(NCc3ccncc3)c2=O)cc1 [1471-19] | 26 | IC50 or % Inhibition TF-VIIa (30 µM) (TF-VIIa): 33% |
| N=C(N)c1ccc(CNC(=O)Cn2c(-c3ccccc3)c(Cl)nc(NCc3ccc(Cl)cc3Cl)c2=O)cc1 [1507-22] |  | IC50 or % Inhibition TF-VIIa (30 µM) (TF-VIIa): 45% |
| N=C(N)c1ccc(CNC(=O)Cn2c(-c3ccc(-c4ccccc4)cc3)c(Cl)nc(NCCc3ccc(Cl)cc3)c2=O)cc1 [Example 22] |  | IC50 or % Inhibition TF-VIIa (30 µM) (TF-VIIa): 0%@30 |
| N=C(N)c1ccc(CNC(=O)Cn2c(-c3ccc(-c4ccccc4)cc3)c(Cl)nc(NCCc3cccnc3)c2=O)cc1 [1471-72] | 22 | IC50 or % Inhibition TF-VIIa (30 µM) (TF-VIIa): 15% |
| N=C(N)c1ccc(CNC(=O)Cn2c(-c3ccccc3)c(Cl)nc(N3CCC3)c2=O)cc1 [1522-28] |  | IC50 (TF-VIIa; cells printed as bare numbers (IC50), read-out: IC50 or % Inhibition TF-VIIa (30 µM)): > 30 µM |
| N=C(N)c1ccc(CNC(=O)Cn2c(-c3ccccc3)c(Cl)nc(NCc3cccc4ccccc34)c2=O)cc1 [1507-28] |  | IC50 or % Inhibition TF-VIIa (30 µM) (TF-VIIa): 38% |
| COc1ccc(-c2c(Cl)nc(NCCc3cccnc3)c(=O)n2CC(=O)NCc2ccc(C(=N)N)cc2)cc1 [1471-40] | 11 | IC50 or % Inhibition TF-VIIa (30 µM) (TF-VIIa): 40% |
| N=C(N)c1ccc(CNC(=O)Cn2c(-c3ccc(-c4ccccc4)cc3)c(Cl)nc(NCCc3cccnc3)c2=O)cc1 [Example 21] |  | IC50 or % Inhibition TF-VIIa (30 µM) (TF-VIIa): 8%@30 |
| CC(C)Nc1nc(Cl)c(-c2cccnc2)n(CC(=O)NCc2ccc(C(=N)N)cc2)c1=O [compound 75] | 9 |  |
| N=C(N)c1ccc(CNC(=O)Cn2c(-c3ccccc3)c(Cl)nc(NCc3cc(F)ccc3F)c2=O)cc1 [1512-36] | 9 |  |
| N=C(N)c1ccc(CNC(=O)Cn2c(-c3ccccc3)c(Cl)nc(NCC3COc4ccccc4O3)c2=O)cc1 (stereo not shown) [1512-01] | 4 |  |
| O=C(Cn1c(-c2ccc(-c3ccccc3)cc2)c(Cl)nc(NCCc2ccccc2)c1=O)NCCc1ccncc1 [Example E-0050] |  | % Inhibition Factor Xa (100 µM) (Human factor Xa): 0% |
| O=C(Cn1c(-c2ccc(Cl)cc2)c(Cl)nc(NCc2ccccc2)c1=O)NCCc1ccncc1 [Example E-0025] |  | % Inhibition Factor Xa (100 µM) (Human factor Xa): 0% |
| O=C(Cn1c(-c2ccc(-c3ccccc3)cc2)c(Cl)nc(NCCc2ccc(Cl)cc2)c1=O)NCCc1ccncc1 [Example E-0118] |  | % Inhibition Factor Xa (100 µM) (Human factor Xa): 3% |
| CCc1c(Cl)nc(NCCc2ccccc2)c(=O)n1CC(=O)NCc1ccc(C(=N)N)cc1 [1471-63] | 2 |  |
| N=C(N)c1ccc(CNC(=O)Cn2c(-c3ccccc3)c(Cl)nc(NCCCc3ccccc3)c2=O)cc1 [1512-06] | 4 |  |
| N=C(N)c1ccc(CNC(=O)Cn2c(-c3ccccc3O)c(Cl)nc(NC3CCC3)c2=O)cc1 [Example 66] | 0 |  |
| COc1ccc(-c2c(Cl)nc(NCCc3ccccc3)c(=O)n2CC(=O)NCCc2ccncc2)cc1 [Example E-0100] |  | % Inhibition Factor Xa (100 µM) (Human factor Xa): 6% |
| C[C@@H](C(=O)NCc1ccc(C(=N)N)cc1)n1c(-c2ccccc2)c(Cl)nc(NC2CCC2)c1=O [1517-09] | 0 |  |
| N=C(N)c1ccc(CNC(=O)Cn2c(-c3ccccc3)c(Cl)nc(NC3CCCc4ccccc43)c2=O)cc1 (stereo not shown) [1507-16] | 18 |  |
| COc1ccc(-c2c(Cl)nc(NCCc3cccc(Cl)c3)c(=O)n2CC(=O)NCCc2ccncc2)cc1 [Example E-0103] |  | % Inhibition Factor Xa (100 µM) (Human factor Xa): 3% |
| N=C(N)c1ccc(CNC(=O)Cn2c(-c3ccccc3)c(Cl)nc(NC3CCC3)c2=O)cc1 [1507-21] | 23 |  |

| Structure (SMILES) | IC50 or % Inhibition Factor Xa (30 µM) (Human factor Xa) [%] | other results |
| --- | --- | --- |
| COc1cccc(CNc2nc(Cl)c(-c3ccccc3)n(CC(=O)NCc3ccc(C(=N)N)cc3)c2=O)c1OC [1512-02] | 3 |  |
| CC1CCCC(Nc2nc(Cl)c(-c3ccccc3)n(CC(=O)NCc3ccc(C(=N)N)cc3)c2=O)C1C (stereo not shown) [1512-23] | 6 |  |
| CSc1ccc(N)cc1-c1c(Cl)nc(NC(C)C)c(=O)n1CC(=O)NCc1ccc(C(=N)N)cc1 [compound 76] | 0 |  |
| N=C(N)c1ccc(CNC(=O)Cn2c(-c3ccccc3)c(Cl)nc(NCc3ccccc3Cl)c2=O)cc1 [1507-03] | 21 |  |
| N=C(N)c1ccc(CNC(=O)Cn2c(-c3ccccc3)c(Cl)nc(NC(Cc3ccccc3)c3ccccc3)c2=O)cc1 (stereo not shown) [1507-07] |  | IC50 or % Inhibition TF-VIIa (30 µM) (TF-VIIa): 25% |
| N=C(N)c1ccc(CNC(=O)Cn2c(-c3ccccc3)c(Cl)nc(NCc3ccccc3)c2=O)cc1 [1471-9] | 29 |  |
| N=C(N)c1ccc(CNC(=O)Cn2c(-c3cccc(Cl)c3)c(Cl)nc(NCc3ccncc3)c2=O)cc1 [1471-27] | 16 |  |
| N=C(N)c1ccc(CNC(=O)Cn2c(-c3ccccc3)c(Cl)nc(NCc3ccc(Cl)cc3)c2=O)cc1 [1507-46] | 8 |  |
| C[C@@H](C(=O)NCc1ccc(C(=N)N)cc1)n1c(-c2ccccc2)c(Cl)nc(NCc2ccccc2)c1=O [1517-03] | 0 |  |
| N=C(N)c1ccc(CNC(=O)Cn2c(-c3ccccc3)c(Cl)nc(NC(c3ccccc3)c3ccccc3)c2=O)cc1 [1507-35] | 28 |  |
| N=C(N)c1ccc(CNC(=O)Cn2c(-c3ccccc3)c(Cl)nc(NCCCCc3ccccc3)c2=O)cc1 [1507-43] | 21 |  |
| N=C(N)c1ccc(CNC(=O)Cn2c(-c3ccccc3)c(Cl)nc(NCCc3cccc(C(F)(F)F)c3)c2=O)cc1 [1512-41] | 4 |  |
| C[C@H](C(=O)NCc1ccc(C(=N)N)cc1)n1c(-c2ccccc2)c(Cl)nc(NC2CCC2)c1=O [1517-11] | 0 |  |
| N=C(N)c1ccc(CNC(=O)Cn2c(-c3ccc4c(c3)OCO4)c(Cl)nc(NCCc3ccc(Cl)cc3)c2=O)cc1 [1471-42] | 15 |  |
| N=C(N)NC/C=C\CNC(=O)Cn1c(-c2ccccc2)cnc(NCCc2ccccc2)c1=O [Example 37] | 0 |  |
| C[C@H](C(=O)NCc1ccc(C(=N)N)cc1)n1c(-c2ccccc2)c(Cl)nc(NCc2ccccc2)c1=O [1517-05] | 0 |  |
| N=C(N)c1ccc(CNC(=O)Cn2c(-c3ccc(C(F)(F)F)cc3)c(Cl)nc(NC3CCC3)c2=O)cc1 [1515-20] |  | IC50 or % Inhibition TF-VIIa (30 µM) (TF-VIIa): 32% |
| CCCCNc1nc(Cl)c(-c2ccccc2)n(CC(=O)NCc2ccc(C(=N)N)cc2)c1=O [1512-14] | 7 |  |
| N=C(N)c1ccc(CNC(=O)Cn2c(-c3ccc4c(c3)OCO4)c(Cl)nc(NCCc3cccnc3)c2=O)cc1 [1471-48] | 17 |  |
| N=C(N)c1ccc(CNC(=O)Cn2c(-c3ccccc3)c(Cl)nc(NC3CCS(=O)(=O)C3)c2=O)cc1 (stereo not shown) [1512-19] | 3 |  |
| O=C(Cn1c(-c2cccc(Cl)c2)c(Cl)nc(NCc2ccccc2)c1=O)NCCc1ccncc1 [Example E-0085] |  | % Inhibition Factor Xa (100 µM) (Human factor Xa): 0% |
